Publication PMC10353187, “Discovery of a new potent oxindole multi-kinase inhibitor among a series of designed 3-alkenyl-oxindoles with ancillary carbonic anhydrase inhibitory activity as antiproliferative agents” (BMC Chemistry, 2023)

Key:
[1] = system: UO-31; experiment: NCI-60 single-dose antiproliferative assay (SRB); type: cell-based, human; details: Homo sapiens, UO-31, 10 μM single dose; UO-31, Renal cancer; read-out: Cell Growth inhibition Percent
Summary of the method: (§1)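 Single 10 μM dose, 48 h at 37 °C in RPMI 1640 with 5% FBS, cells seeded 24 h before dosing. TCA fixation, sulforhodamine B staining, absorbance 515 nm; percent growth derived against time-zero and untreated control plates, triplicate wells.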

[2] = biological target: hCA II (Homo sapiens, UniProt P00918); experiment: Stopped flow CO2 hydrase assay
[3] = system: OVCAR-4; experiment: NCI-60 single-dose antiproliferative assay (SRB); type: cell-based; details: Homo sapiens; 10 μM single dose; OVCAR-4, Ovarian Cancer; read-out: Cell Growth inhibition Percent
Summary of the method: as §1

[4] = system: ACHN; experiment: NCI-60 single-dose antiproliferative assay (SRB); type: cell-based; details: Homo sapiens, 10 μM single dose, Renal cancer, read-out: Cell Growth inhibition Percent
Summary of the method: as §1

[5] = system: KM12; experiment: NCI-60 single-dose antiproliferative assay (SRB); type: cell-based; details: Homo sapiens; 10 μM single dose; KM12, Colon cancer; read-out: Cell Growth inhibition Percent
Summary of the method: (§2)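 Cells grown in RPMI 1640 with 5% FBS and 2 mM L-glutamine were plated, left 24 h at 37 °C, then exposed to compound at a single 10 µM final concentration for 48 h. Adherent cells were TCA-fixed, SRB-stained and read at 515 nm; growth was expressed relative to time-zero and untreated controls.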

[6] = system: HOP-92; experiment: NCI-60 single-dose antiproliferative assay (SRB); type: cell-based; details: Homo sapiens; 10 μM single dose; HOP-92, Non-small cell lung cancer; read-out: Cell Growth inhibition Percent
Summary of the method: as §2

[7] = system: MDA-MB-231/ATCC; experiment: NCI-60 single-dose antiproliferative assay (SRB); type: cell-based; details: Homo sapiens, 10 μM single dose, Breast cancer, read-out: Cell Growth inhibition Percent
Summary of the method: as §1

[8] = system: MCF7; experiment: NCI-60 single-dose antiproliferative assay (SRB); type: cell-based; details: Homo sapiens; 10 μM single dose; MCF7, Breast cancer; read-out: Cell Growth inhibition Percent
Summary of the method: as §1

[9] = system: SF-268; experiment: NCI-60 single-dose antiproliferative assay (SRB); type: cell-based; details: Homo sapiens; 10 μM single dose; SF-268, CNS cancer; read-out: Cell Growth inhibition Percent
Summary of the method: as §1

[10] = system: SR; experiment: NCI-60 single-dose antiproliferative assay (SRB); type: cell-based; details: Homo sapiens, 10 μM single dose, Leukemia, read-out: Cell Growth inhibition Percent
Summary of the method: as §1

[11] = system: EKVX; experiment: NCI-60 single-dose antiproliferative assay (SRB); type: cell-based; details: Homo sapiens, 10 μM single dose, Non-small cell lung cancer, read-out: Cell Growth inhibition Percent
Summary of the method: as §1

[12] = system: HOP-62; experiment: NCI-60 single-dose antiproliferative assay (SRB); type: cell-based; details: Homo sapiens; 10 μM single dose; HOP-62, Non-small cell lung cancer; read-out: Cell Growth inhibition Percent
Summary of the method: as §1

[13] = system: NCI-H226; experiment: NCI-60 single-dose antiproliferative assay (SRB); type: cell-based; details: Homo sapiens; 10 μM single dose; NCI-H226, Non-small cell lung cancer; read-out: Cell Growth inhibition Percent
Summary of the method: as §1

[14] = system: PC-3; experiment: NCI-60 single-dose antiproliferative assay (SRB); type: cell-based; details: Homo sapiens; 10 μM single dose; PC-3, Prostate cancer; read-out: Cell Growth inhibition Percent
Summary of the method: as §1

[15] = system: NCI 60 cancer cell lines; experiment: NCI-60 single-dose antiproliferative assay, mean over panel; type: cell-based; details: Homo sapiens; 10 μM single dose; mean over all NCI panel cell lines; read-out: MEAN % Growth inhibition
Method: From the newly synthesized compounds, eleven compounds (4c, 4d, 5, 9a, 9b, 11a, 11b, 13b, 13c, 15b, and 15c) were selected by the National Cancer Institute (NCI) Developmental Therapeutics Program (DTP), Bethesda, Maryland, USA for the in vitro anti-proliferative activity evaluation. The selected compounds were examined at 10 μM dose against the NCI 60-cell line panel. This panel consists of nine cell line groups of leukemia, non-small cell lung carcinoma (NSCLC), melanoma, colon, CNS, ovarian, renal, prostate, and breast cancers. The results are reported as mean-graph of the percent growth relative to control and presented as percentage growth inhibition (GI%), furthermore, mean GI% of each compound over all panel cell lines was calculated (Table 1; Additional file 1; S3: In vitro biological activity).
From the newly synthesized compounds, eleven compounds were selected by the National Cancer Institute (NCI) Developmental Therapeutics Program (DTP), Bethesda, Maryland, USA for the in vitro anti-proliferative activity evaluation (For further details see supplementary materials).
NCI In-vitro Cancer Screening is a two-phase procedure that starts with the assessment of all compounds against the sixty NCI cell line panel depicting leukemia, NSCLC, CNS cancer, melanoma, prostate cancer, breast cancer, renal cancer, colon cancer and ovarian cancer cell lines at a single point of 10μM. The output from the single-dose screen is reportable as a mean graph.
The human tumor cell lines of the cancer screening panel were grown in RPMI 1640 medium containing 5% fetal bovine serum and 2 mM L-glutamine. For a typical screening experiment, cells were inoculated into 96 well microtiter plates in […] at plating densities ranging from 5000 to 40,000 cells/well depending on the doubling time of individual cell lines. After cell inoculation, the microtiter plates were incubated at 37 °C, 5% CO2, 95% air and 100% relative humidity for 24 h prior to addition of experimental drugs. After 24 h, two plates of each cell line were fixed in situ with trichloroacetic acid (TCA), to represent a measurement of the cell population for each cell line at the time of drug addition (Tz). Experimental drugs were solubilized in dimethyl sulfoxide at 400-fold the desired final maximum test concentration and stored frozen prior to use. At the time of drug addition, an aliquot of frozen concentrate was thawed and diluted to twice the desired final maximum test concentration with complete medium containing 50 µg/ml gentamicin. Aliquot of 100 µl of the drug dilution was added to the appropriate microtiter wells already containing 100 µl of medium, resulting in the required final drug concentration (10 µM). Triplicate wells were prepared for each individual dose. Following drug addition, the plates were incubated for an additional 48 h at 37 °C, 5% CO2, 95% air, and 100% relative humidity. For adherent cells, the assay was terminated by the addition of cold TCA. Cells were fixed in situ by the gentle addition of 50 µl of cold 50% (w/v) TCA (final concentration, 10% TCA) and incubated for 60 min at 4 °C. The supernatant was discarded, and the plates were washed five times with tap water and air dried. Sulforhodamine B (SRB) solution (100 µl) at 0.4% (w/v) in 1% acetic acid was added to each well, and plates were incubated for 10 min at room temperature. After staining, unbound dye was removed by washing five times with 1% acetic acid and the plates were air dried. Bound stain was subsequently solubilized with 10 mM trizma base, and the absorbance was read on an automated plate reader at a wavelength of 515 nm. For suspension cells, the methodology was the same except that the assay was terminated by fixing settled cells at the bottom of the wells by gently adding 50 µl of 80% TCA (final concentration, 16% TCA). […]

[16] = biological target: hCA I (Homo sapiens, UniProt P00915); experiment: Stopped flow CO2 hydrase assay
Chain of hCA I (P00915 whole entry): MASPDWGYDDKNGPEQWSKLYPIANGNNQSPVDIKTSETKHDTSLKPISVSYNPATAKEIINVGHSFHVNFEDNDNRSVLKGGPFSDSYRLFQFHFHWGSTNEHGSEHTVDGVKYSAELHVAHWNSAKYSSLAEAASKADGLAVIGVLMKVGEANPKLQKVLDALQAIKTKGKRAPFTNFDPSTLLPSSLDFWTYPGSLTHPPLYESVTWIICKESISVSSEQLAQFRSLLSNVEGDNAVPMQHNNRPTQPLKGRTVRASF

[17] = biological target: hCA IX (Homo sapiens, UniProt Q16790); experiment: Stopped flow CO2 hydrase assay
[18] = biological target: hCA XII (Homo sapiens, UniProt O43570); experiment: Stopped flow CO2 hydrase assay
Chain of hCA XII (O43570 25-354): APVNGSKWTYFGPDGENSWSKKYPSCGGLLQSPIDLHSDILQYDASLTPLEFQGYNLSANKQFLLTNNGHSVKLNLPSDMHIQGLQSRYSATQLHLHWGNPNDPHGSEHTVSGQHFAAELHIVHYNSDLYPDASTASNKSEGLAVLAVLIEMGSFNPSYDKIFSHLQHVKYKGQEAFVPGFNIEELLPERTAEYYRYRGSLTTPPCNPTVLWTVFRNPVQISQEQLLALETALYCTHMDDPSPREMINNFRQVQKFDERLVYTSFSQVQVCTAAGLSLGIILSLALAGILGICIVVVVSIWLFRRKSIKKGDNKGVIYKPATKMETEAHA

- melting point: > 300 °C
- Ki [2]: > 10 µM
- Ki [16]: > 10 µM
- Ki [17]: > 10 µM
- Ki [18]: > 10 µM
Structure (SMILES): O=C1Nc2ccccc2C1=CNc1ccc(C(=O)Nc2ccc(S(=O)(=O)Nc3ncccn3)cc2)cc1 [Compound 9b, 4-{[(2-Oxoindolin-3-ylidene)methyl]amino}-N-{4-[N-(pyrimidin-2-yl)sulfamoyl]phenyl}benzamide]
- inhibition at 10 µM [1]: 43.7%
- inhibition at 10 µM [3]: 7.67%
- inhibition at 10 µM [4]: 10.5%
- inhibition at 10 µM [5]: 43.9%
- inhibition at 10 µM [6]: 4.65%
- inhibition at 10 µM [7]: 3.83%
- inhibition at 10 µM [8]: 4.97%
- inhibition at 10 µM [9]: 3.48%
- inhibition at 10 µM [10]: 9.02%
- inhibition at 10 µM [11]: 38.5%
- inhibition at 10 µM [12]: 27.7%
- inhibition at 10 µM [13]: 12.2%
- inhibition at 10 µM [14]: 7.1%
- inhibition at 10 µM [15]: 2.55%
